One data set has as its target human AT1R (Homo sapiens (Human), UniProt P30556). Description: Counterscreen radioligand binding assay, displacement of 125I-[Sar1, Ile8]-Angiotensin II, hAT1R WT. The conditions noted are these: for inhibition at 1 µM / inhibition at 10 µM: 125I-[Sar1, Ile8]-Ang II, semi-quantitative score; for inhibition at 1 µM: compound at 1 μM, read-out: % Displaced radioligand at 1 μM; for inhibition at 10 µM: compound at 10 μM, read-out: % Displaced radioligand at 10 μM; for IC50: HEK-293 cell membranes, read-out: Binding affinity On hAT1R IC50. The gist of the method: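 Compounds displaced 0.05 nM 125I-[Sar1, Ile8]-Ang II from human AT1R in HEK-293 membranes (1 h, 25° C; Tris/MgCl2/EDTA/BSA buffer, pH 7.4). Readout was filtration and scintillation counting, with non-specific binding set by 10 μM [Sar1]-Ang II. Values are % displacement at 1 μM and […], or IC50 from eight-point four-parameter fits.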
In general terms: The purpose of a counterscreen is to sort out artefacts and off-target activity.

Data set [1] is described as follows: Liver microsomal stability, rat. The data set is classed as in vitro ADME. The conditions noted are these: male, pH 7.4, liver microsomes. In general terms: Liver microsomes are vesicles of endoplasmic reticulum, rich in cytochrome P450 enzymes.
Data set [2] in a line: Liver microsomal stability, mouse. The data set is classed as in vitro ADME. As to conditions: male, pH 7.4, liver microsomes. How it is done: Mouse hepatic microsomes were isolated from pooled (50), perfused livers of male Balb/c mice. Rat hepatic microsomes were isolated from pooled (15), perfused livers of male Wistar rats. Isolation was performed according to the standard protocol (Hill, J. R. in Current Protocols in Pharmacology 7.8.1-7.8.11, Wiley Interscience, 2003). The batches of microsomes were tested for quality control using Imipramine, Propranolol and Verapamil as reference compounds.
Microsomal incubations were carried out in 96-well plates in 5 aliquots of 40 μL each (one for each time point). Liver microsomal incubation medium contained PBS (100 mM, pH 7.4), MgCl2 (3.3 mM), NADPH (3 mM), glucose-6-phosphate (5.3 mM), glucose-6-phosphate dehydrogenase (0.67 units/ml) with 0.42 mg of liver microsomal protein per ml. Control incubations were performed replacing the NADPH-cofactor system with PBS. Test compound (2 μM, final solvent concentration 1.6%) was incubated with microsomes at 37° C., shaking at 100 rpm. Incubations were performed in duplicates. Five time points over 40 minutes have been analyzed. The reactions were stopped by adding 12 volumes of 90% acetonitrile-water to incubation aliquots, followed by protein sedimentation by centrifuging at 5500 rpm for 3 minutes. […]. Supernatants were analyzed using the HPLC system coupled with tandem mass spectrometer (API3000 PE Sciex). Acquisition and analysis of the data were performed using Analyst 1.5.2 software (PE Sciex). The elimination constant (kel), half-life (t½) and intrinsic clearance (Clint) were determined in plot of […] versus time, using linear regression analysis:
Mouse hepatic microsomes were isolated from pooled, perfused livers of male CD1 mice. Rat hepatic microsomes were isolated from pooled, perfused livers of male Sprague Dawley rats. Dog hepatic microsomes were isolated from pooled, perfused livers of male Beagle dogs. The batches of microsomes were tested for quality control using Testosterone, Propranolol and Caffeine as reference compounds.
A 10 mM stock solution of compound in DMSO is diluted three-fold in DMSO. This pre-diluted compound solution is then further diluted to 2 μM in a 50 mM phosphate buffer (PBS, pH 7.4) and pre-warmed at 37° C. This compound dilution is mixed F2 with microsomal/cofactor mix at 37° C. under shaking at 300 rpm. Final reaction conditions are: 100 μL incubation volume, 1 μM of test compound (in duplicate), <0.1% DMSO, 0.5 mg/mL microsomes, 0.6 U/mL Glucose-6-phosphate-dehydrogenase (G6PDH, Roche, 10127671001), 3.3 mM MgCl2 (Sigma, M2670), 3.3 mM glucose-6-phosphate (Sigma, G-7879) and 1.3 mM NADP+ (Sigma, N-0505).
After 60 min of incubation at 300 rpm and 37° C., the reaction was stopped with 3 volumes of STOP solution (acetonitrile/MeOH 2/1 with diclofenac as internal standard). For the time point zero, 3 volumes of STOP solution were added to the compound dilution before the microsome mix was added. Six time points over 60 minutes have been analyzed. The samples of all time points were centrifuged, filtered and the supernatant analyzed by LCMS/MS (systems API4000).
The instrument responses (peak areas/IS peak area) were referenced to the zero time-point samples (considered as 100%) in order to determine the percentage of compound remaining.
Testosterone (1 μM) and Propranolol and Caffeine (1 μM) were used as reference compounds, being unstable and stable compounds respectively. If the microsomal stability values for these controls are not in the range determined by the historical data, the assay is not validated. The solubility of the compound in the final test concentration in 50 mM buffer pH 7.4 is checked by microscope to indicate whether precipitation is observed or not. If a precipitate is observed, no data of microsomal stability is generated.

For the next data set, the target named is human AT2R fused to Cb23 (Homo sapiens, UniProt P50052). The experiment in a line: Radioligand binding assay, displacement of 125I-[Sar1, Ile8]-Angiotensin II, hAT2R Cb23. As to conditions: displacement of 125I-[Sar1, Ile8]-Angiotensin II, human AT2R fused to Cb23, HEK-293 cell membrane preparations; read-out: Binding affinity on hAT2R_Cb23 IC50. In outline:
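Membranes from HEK-293 cells expressing human AT2R fused to Cb23 were incubated with 0.05 nM 125I-[Sar1, Ile8]-Angiotensin II in 100 μL buffer (50 mM Tris, 5 mM MgCl2, 1 mM EDTA, 0.1% BSA, pH 7.4) for one hour at 25° C. Ligands were tested as eight-point dose-response curves in duplicate, with C21 and Angiotensin II as references.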
For orientation: Loss of bound radioactivity is the signal in a displacement assay; it reports binding, not function.

Chain of human AT2R fused to Cb23 (P50052 whole entry, looked up, the tested form may be a part): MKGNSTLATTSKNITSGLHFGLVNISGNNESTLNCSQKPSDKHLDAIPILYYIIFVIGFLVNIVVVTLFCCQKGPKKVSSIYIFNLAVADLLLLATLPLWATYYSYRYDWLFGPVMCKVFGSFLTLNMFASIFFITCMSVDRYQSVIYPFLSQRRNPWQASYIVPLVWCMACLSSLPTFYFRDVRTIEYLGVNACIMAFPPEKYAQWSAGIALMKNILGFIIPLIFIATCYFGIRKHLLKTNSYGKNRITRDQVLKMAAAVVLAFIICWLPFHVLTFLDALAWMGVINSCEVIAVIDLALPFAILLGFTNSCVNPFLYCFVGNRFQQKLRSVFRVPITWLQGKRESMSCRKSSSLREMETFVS
Chain of human AT1R (P30556 whole entry): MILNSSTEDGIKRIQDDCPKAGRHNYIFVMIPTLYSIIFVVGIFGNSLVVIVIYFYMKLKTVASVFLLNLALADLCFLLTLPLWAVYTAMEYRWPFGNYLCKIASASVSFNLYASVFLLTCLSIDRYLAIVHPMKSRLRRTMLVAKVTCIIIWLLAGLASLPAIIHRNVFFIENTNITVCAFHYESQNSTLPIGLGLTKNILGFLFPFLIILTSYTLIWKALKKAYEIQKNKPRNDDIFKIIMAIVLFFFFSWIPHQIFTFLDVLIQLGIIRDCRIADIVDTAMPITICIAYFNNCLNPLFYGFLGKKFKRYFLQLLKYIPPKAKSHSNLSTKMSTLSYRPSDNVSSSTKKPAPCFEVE

One may read the microsomal CLint as the rate of metabolic loss divided by the concentration. Read a high microsomal CLint as faster metabolism. Broadly, the IC50 is the concentration that inhibits the measured activity by half. For the compound `CC(C)Cc1ccc(-c2nn[nH]n2)c(N2CCN(Cc3nc4ccccc4c(=O)[nH]3)CC2)c1` [Compound A-31, 2-[[4-[5-isobutyl-2-(2H-tetrazol-5-yl)phenyl]piperazin-1-yl]methyl]-3H-quinazolin-4-one], on human AT1R, the inhibition at 1 µM was < 30% and the inhibition at 10 µM was < 30%. Also, the microsomal CLint in data set [1] amounted to 5 µL/min/mg. Moreover, the intrinsic clearance (microsomal CLint) in data set [2] is 16 µL/min/mg. The IC50 at human AT2R fused to Cb23 turned out to be 2070 nM.
As for `CCCCOC(=O)NS(=O)(=O)c1ccc(C(F)(F)F)cc1N1CCN(Cc2nc3ccccc3n2C)CC1` [Compound A-09, butyl N-[2-[4-[(1-methylbenzimidazol-2-yl)methyl]piperazin-1-yl]-4-(trifluoromethyl)phenyl]sulfonylcarbamate], the inhibition at 1 µM on human AT1R is < 30%. Moreover, on human AT1R, the inhibition at 10 µM is < 30%. Besides, the IC50 at human AT1R worked out at 36500 nM; at human AT2R fused to Cb23 it was 2180 nM. Besides, the microsomal CLint in data set [1] and in data set [2] was 33 µL/min/mg in each case.
Consider `CC(C)Cc1ccc(-c2nn[nH]n2)c(N2CCN(Cc3ccnn3C)CC2)c1` [Compound A-84, 1-[5-isobutyl-2-(2H-tetrazol-5-yl)phenyl]-4-[(1-methylpyrazol-5-yl)methyl]piperazine], for which, on human AT1R, the inhibition at 1 µM is < 30% and the inhibition at 10 µM is < 30%. Moreover, the microsomal CLint in data set [1] was found to be 7 µL/min/mg. For the same compound, the intrinsic clearance (microsomal CLint) in data set [2] was determined as 17 µL/min/mg. Moreover, the IC50 at human AT2R fused to Cb23 amounted to 2370 nM.
In the case of `CC(C)Cc1ccc(-c2nn[nH]n2)c(N2CCN(Cc3nc4ccccc4n3C)CC2)c1` [Compound A-20, 2-[[4-[5-isobutyl-2-(2H-tetrazol-5-yl)-phenyl]piperazin-1-yl]methyl]-1-meth-yl-benzimidazole], on human AT1R, the inhibition at 1 µM was < 30%, the inhibition at 10 µM was < 30% and the IC50 came to 49700 nM. Besides, in data set [1], the microsomal CLint was found to be 28 µL/min/mg. Also, the intrinsic metabolic clearance (microsomal CLint) in data set [2] turned out to be 20 µL/min/mg. The IC50 at human AT2R fused to Cb23 is 510 nM.
Turning to `CC(C)Cc1cc(F)c(-c2nn[nH]n2)c(N2CCN(Cc3cccnn3)C(C)C2)c1` (centres unmarked) [Compound A-173, 3-[[4-[3-fluoro-5-isobutyl-2-(2H-tetrazol-5-yl)phenyl]-2-methyl-piperazin-1-yl]methyl]pyridazine], the inhibition at 1 µM at human AT1R is < 30%. The inhibition at 10 µM at human AT1R was < 30%. The intrinsic metabolic clearance (microsomal CLint) in data set [1] is 12 µL/min/mg; in data set [2], 5 µL/min/mg. For the same compound, at human AT2R fused to Cb23, the IC50 is 16 nM.
For the compound `Cc1cc(CN2CCN(c3cc(CC(C)C)ccc3-c3nn[nH]n3)CC2)no1` [Compound A-82, 3-[[4-[5-isobutyl-2-(2H-tetrazol-5-yl)phenyl]piperazin-1-yl]methyl]-5-methyl-isoxazole], on human AT1R, the inhibition at 1 µM was < 30% and the inhibition at 10 µM is < 30%. Moreover, the intrinsic clearance (microsomal CLint) in data set [1] is 4 µL/min/mg. The compound also gave a microsomal CLint in data set [2] of 7 µL/min/mg. For the same compound, on human AT2R fused to Cb23, the IC50 was determined as 3200 nM.

Source of the values: patent US20240368133A1, “Compounds for the Treatment of Pain, in Particular, Neuropathic Pain, and/or Other Diseases or Disorders that are Associated with AT2R and/or AT2R Mediated Signaling” (Confo Therapeutics N.V., priority 2021, published 2024).
